From patent US5484778A, “Phthalocyanine photosensitizers for photodynamic therapy and methods for their use” (priority 1993, dated 1996) come the findings set out here.

Entries after “also recorded” stand apart in the source; their conditions may differ.

Series [1] deals with V79 cells. In words: Clonogenicity, killing of V79 cells using photodynamic therapy (Table 3). Format: cell-based, Chinese hamster. To be noted: for LD 90: 18 h, light dose killing 90% of cells. The procedure:
Using the cell culture methods described above, V79 cells Chinese hamster lung fibroblasts were treated with either 0.5 or 1.0 μM of the phthalocyanines listed in Table 3. About 18 hours thereafter, the cells were irradiated with increasing doses of 675 nm broad band red light from a 500 W tungsten-halogen lamp fitted with a 600 nm high pass filter, to determine the light dosage that would kill 90% of the phthalocyanine treated cells. Where 90% of the cells were not killed, the maximum percent of cells killed were determined, (expressed as % survival) and the related light dosage recorded.

Series [2] concerns L5178Y-R (LY-R) cells. In words: Clonogenic survival of PDT-treated L5178Y-R cells (Tables 4 and 5, FIG. 3). Format: cell-based, mouse. To be noted: 0.5 μM; for LD 90: fluence reducing survival to 10%; for LD50: fluence reducing survival to 50%. As for the experimental part: (§1) Mouse lymphoma L5178y-R (hereinafter also referred to as "LY-R") cells were grown in suspension culture as described in Ramakrishnan N., Oleinick, N. L. Clay, M. E., Horng, M. F., Antunez, A. R., and Evans H. H., DNA lesions and DNA degradation in mouse lymphoma L5178Y cells after photodynamic treatment sensitized by chloroaluminum phthalocyanine. Photochem. Photobiol. 50, 373-378, 1989 and Agarwal, M. L., Clay, M. E., Harvey, E. J., Evans, H. H., Antunez, A. R., and Oleinick, N. L. Photodynamic therapy induces rapid cell death by apoptosis in L5178Y mouse lymphoma cells. Cancer Res., 51, 5993-5996, 1991.
(§2) The cells were used while in exponential growth. Stock solutions of either 0.5 or 1 mM of PcIV, PcXII, PcX, PcXVIII were prepared in dimethylformamide unless otherwise indicated and added to the 10 mL medium at a rate of 1 μL per mL. After allowing 18 hours for uptake of the phthalocyanine into the cells, the flasks containing the cultures were placed on a glass exposure tray above a 500-W tungsten-halogen lamp. The exposure tray was fitted with a 600-nm high-pass filter. Flasks were exposed to various fluences of red light (up to 30 kJ/m^2) at a fluence rate of approximately 74 W/m^2). After irradiation, the cells were collected by centrifugation.
(§3) For measurement of clonogenic cell survival, aliquots were plated in medium containing soft agar as described in Ramakrishnan N., Oleinick, N. L. Clay, M. E., Horng, M. F., Antunez, A. R., and Evans H. H., DNA lesions and DNA degradation in mouse lymphoma L5178Y cells after photodynamic treatment sensitized by chloroaluminum phthalocyanine. Photochem. Photobiol. 50, 373-378, 1989. The aliquots were plated in sufficient numbers to produce 50-200 colonies. The dishes were kept in an incubator at 37° C. in an atmosphere of 5% CO2 and 95% air for 10-14 days to allow viable cells to form colonies. Colonies were counted by eye. Controls treated with the phthalocyanine alone had plating efficiencies of ~90%. The plating efficiencies of the treated cells are normalized to the plating efficiencies of control cells in each experiment. For measurement of the induction of apoptosis, DNA was isolated from the treated and control cells 2 hours after photodynamic therapy, subjected to electrophoresis on 1.5% agarose, stained with ethidium bromide, and visualized by UV transillumination, as described in Agarwal et. al. The results are shown in Tables 4, 5 and 6 and in FIG. 3.
In Table 4 each phthalocyanine was present at 0.5 μM, and the normalized plating efficiencies are presented as mean and standard deviation at each fluence tested. […] This relative activity of these four phthalocyanines is the same as obtained from screening in V79 cells.
PcXII when present in the culture medium at 0.5 μM requires less light, that is the lowest fluence, to kill either 50% […] of the cells. PcIV is about 80% as active as PcXII, PcX is 44% as active as PcXII and PcXVIII is 22% as active as PcXII.

Series [3] deals with L5178Y cells. Put plainly: Induction of apoptosis (DNA fragmentation) in L5178Y-R cells (Table 6). Format: cell-based, mouse. To be noted: for apoptosis (in words): various concentrations and fluences. The procedure:
as §1, §2, §3
Cells were treated with various concentrations of the compounds listed in the table and various light fluences. DNA gels were prepared and examined for the characteristic "ladder" pattern of DNA fragments. For each Pc, the minimum total PDT dose tested (calculated as the product of the minimum phthalocyanine concentration and the minimum fluence) which produced visible DNA fragments is recorded. […] PcXVIII was also added at 0.5 and 1.0 μM.

Series [4] relates to RIF-1 tumors. Put plainly: PDT of RIF-1 implanted tumors (Table 7). Format: in vivo, C3H/HeN mice. Particulars: for Doubling Time of Initial Tumor Volume after PDT: 1 mg/kg in corn oil, 675 nm, 135 J/cm^2; for effect on tumor volume / growth (in words): 1 mg/kg. The procedure:
The relative effectiveness at reducing tumor volume of selected phthalocyanine compounds at a given dosage was compared in vivo. RIF-1, i.e., radiation-induced fibrosarcoma, tumors were implanted into the backs of C3H/HeN mice. One tumor was implanted per mouse. Each of the phthalocyanine compounds listed in Table 7 was sonicated and vortexed in corn oil to produce a suspension. When the tumors reached […] in diameter and 2-3 mm in thickness, each mouse received 1 mg/kg in 0.1 ml of the corn oil, of the phthalocyanine suspension. For comparison, select mice received a conventional photosensitizer; either 5 mg/kg of chloroaluminum phthalocyanine tetrasulfonate, herein also referred to as "AlPcTS" in phosphate buffered saline or 5 mg/kg of Photofrin®-II in 5% dextrose. Twenty-four hours after the photosensitizers were administered, the tumors were irradiated with visible radiation delivered by an argon-pumped dye laser. The mice that received a phthalocyanine photosensitizer received light having a wavelength of 675 nm and the mice that received the Photofrin® II photosensitizer received light having a wavelength of 630 nm. Each tumor received 135 J/cm^2 of radiation. Tumor size was measured every day using calipers. The initial tumor volume was 50±10 mm^3. Tumor volume was calculated according to the hemiellipsoid model by the formula: [formula] Where l is length Where W is width

Series [5] concerns V79 cells.
Experimental: V79 cells Chinese hamster lung fibroblasts were cultured using the cell culture methods described above. […] When the filters were dry, the phthalocyanines were extracted into ethanol and the absorption determined at the peak wavelength, usually 668 nm.

In the case of `CN(C)CCC[Si](C)(C)O[Si]1(O[Si](C)(C)CCCN(C)C)n2c3c4ccccc4c2N=C2N=C(N=c4c5ccccc5c(n41)=NC1=NC(=N3)c3ccccc31)c1ccccc12` [Compound XII, SiPc[OSi(CH3)2 (CH2)3 N(CH3)2]2], the “LD 90” value in series [1] (0.5 μM) is listed as 3.3 kJ/m^2. The “photosensitizing activity, killing V79 cells (in words)” value in series [1] (discussion of Table 3) was “most active at killing V79 cells”. In series [2], this compound gave an LD 90 of 1.70 kJ/m^2 and an LD50 of 1.11 kJ/m^2. The “photosensitizer activity in LY-R cells (in words)” value in series [2] (listed as PcXII) is “active photosensitizers; also recorded: most active compound of the phthalocyanines shown in Table 5”. Also, in series [3] (0.4 μM), the “Minimum Demonstrated Condition to induce apoptosis: C × F” value (from here on “Minimum Demonstrated Condition … C × F”) is 1.2 μm × kJ/m^2 and the “Minimum Demonstrated Condition to induce apoptosis: Fluence” value (“Minimum Demonstrated Condition … Fluence” for short) worked out at 3.0 kJ/m^2. In series [4], the “Doubling Time of Initial Tumor Volume after PDT” value (shortened to “Doubling Time”) was 20 days. Moreover, the “effect on tumor volume / growth (in words)” value in series [4] (listed as Pc XII) is “significantly impair the growth of the tumors”. Further, the “effect on tumor volume / growth (in words)” value in series [4] (listed as PcXII) is given as “particularly effective in reducing tumor volume”. Also, in series [5], the “Uptake (from Table 2)” value came out at 1.6 n Moles/10^6 cells/μM; the “Uptake into V79 cells, composite value” worked out at 1.6 n Moles/10^6 cells/μM; the “uptake by V79 cells (in words)” value is “taken up particulary well”.
With `CCN(CCC[Si](C)(C)O[Si]1(O)n2c3c4ccccc4c2N=C2N=C(N=c4c5ccccc5c(n41)=NC1=NC(=N3)c3ccccc31)c1ccccc12)CCN(C)C` (stereo not shown) [Compound X, HOSiPcOSi(CH3)2 (CH2)3 N(CH2 CH3)(CH2)2 N(CH3)2], in series [1] (0.5 μM), the “LD 90” value is given as 7 kJ/m^2. Also, in series [2], the “photosensitizer activity in LY-R cells (in words)” value is recorded as “active photosensitizers”, the LD 90 is reported as 4.19 kJ/m^2 and the LD50 is 2.38 kJ/m^2. Also, the “activity relative to PcXII” value in series [2] (from Table 5) was 44%. Moreover, in series [3] (0.5 μM), the “Minimum Demonstrated Condition … C × F” value is 3.0 μm × kJ/m^2 and the “Minimum Demonstrated Condition … Fluence” value was 6.0 kJ/m^2. For the same compound, in series [3] (1.0 μM), the “Minimum Demonstrated Condition … C × F” value came to 3.0 μm × kJ/m^2 and the “Minimum Demonstrated Condition … Fluence” value was determined as 3.0 kJ/m^2. Moreover, in series [3], the “apoptosis (in words)” value is “the same minimum value for the C×F product was obtained in both cases”. Moreover, in series [5], the “Uptake (from Table 2)” value is 0.7 n Moles/10^6 cells/μM and the “Uptake into V79 cells, composite value” is on record as 0.7 n Moles/10^6 cells/μM.
Consider “SiPc[OSi(CH3)2 (CH2)4 NHSO2 CH3 ]2 [Compound VIII]”, for which the “Maximum Effect (% survival)” value in series [1] (1 μM, at 30 kJ/m^2) was found to be 94%. The induction of apoptosis result in series [3] (1 μM at a fluence of 30 kJ/m^2) was “did not induce apoptosis”. Moreover, in series [4], the “effect on tumor volume / growth (in words)” value is listed as “the doubling of tumor volume was delayed in the animals treated with each of the compounds except PcVIII” and the “Doubling Time” value is given as 4 days. Moreover, in series [5], the “Uptake (from Table 2)” value is given as 0.2 n Moles/10^6 cells/μM and the “Uptake into V79 cells, composite value” came to 0.2 n Moles/10^6 cells/μM.
Take `C[Si](C)(CCCCNS(C)(=O)=O)O[Si]1(O)n2c3c4ccccc4c2N=C2N=C(N=c4c5ccccc5c(n41)=NC1=NC(=N3)c3ccccc31)c1ccccc12` (stereo not shown) [Compound IX, HOSiPCOSi(CH3)2 (CH2)4 NHSO2 CH3]: in series [1] (0.5 μM, at 9 kJ/m^2), the “Maximum Effect (% survival)” value was 44%. In series [3] (0.3 μM), the “Minimum Demonstrated Condition … C × F” value was found to be 3.6 μm × kJ/m^2 and the “Minimum Demonstrated Condition … Fluence” value is given as 12.0 kJ/m^2. In series [3] (0.5 μM), the “Minimum Demonstrated Condition … C × F” value is recorded as 4.0 μm × kJ/m^2 and the “Minimum Demonstrated Condition … Fluence” value was 8.0 kJ/m^2. Also, in series [3] (1.0 μM), the “Minimum Demonstrated Condition … C × F” value is listed as 12.0 μm × kJ/m^2 and the “Minimum Demonstrated Condition … Fluence” value was 12.0 kJ/m^2. Moreover, in series [3], the “apoptosis (in words)” value was “activity increases and then decreases as the concentration is raised”. In series [4], the “effect on tumor volume / growth (in words)” value is “particularly effective in reducing tumor volume” and the “Doubling Time” value is given as 11 days. In series [5], the “Uptake (from Table 2)” value is given as 0.3 n Moles/10^6 cells/μM and the “Uptake into V79 cells, composite value” is 0.3 n Moles/10^6 cells/μM.
